Data as given in publication PMC11679558, “Novel Peptidomimetic Cyclo-{E(I)-E(W)}Na (CP-88) with Hematopoietic Activity Sustained in Invasive and Oral Administration: Experimental and Preclinical Evaluation” (International Journal of Molecular Sciences, 2024).
Peptide text beside a SMILES is read from it.

Assays:
[1] = Pharmacokinetics of Stemokin in mice using 3H-Stemokin; assay type: in vivo; conditions: parenteral administration
Method: The additional goal of this study was to estimate Stemokin’s pharmacokinetics using 3H-Stemokin.
The main radioactivity was accumulated in the bone marrow. This exceptional tropism to bone marrow could explain its significant hemostimulating activity (Table 4 and Table 5, line 3 underlying the extraordinary tropism of Stemokin to Bone marrow tissue).
Pharmacokinetics of Stemokin With parenteral administration of the drug, a Cmax in the blood was achieved after 5 min […]. A Cmax was observed 30–40 min after administration in bone marrow, liver, kidneys, and lymph nodes. The drug’s T1/2 is 24 h and is eliminated from the body within 72 h. The pharmacokinetics of Stemokin was studied using ^3H-Stemokin, obtained by thermal activation of gaseous tritium. 3H-Stemokin was administered intramuscularly to BDF1 female mice, and 72 h after a single dose, the levels of ^3H-radioactivity were determined in animal organs and tissues. The main amount of radioactivity, ~80%, was excreted within 24 h after administration of ^3H-Stemokin and was less than 5% of the administered dose (Table 4 and Table 5).

[2] = cited from earlier work
Description: Several cyclopeptides (A1–A5) indicated stimulatory hematopoietic activity sustained in invasive and oral administration.

[3] = Interspecies extrapolation of the toxicological results to humans; conditions: interspecies extrapolation from the toxicological test results
Method: The toxicological test results conclude that in humans, considering interspecies extrapolation, CP-88 can be practically safe with a single and course administration in doses of up to 100 μg/kg. In the first phase of clinical trials, it is advisable to test the drug for tolerability, starting with a dose of 1 μg/kg. The dose can be increased to 10 μg/kg daily with no adverse reactions detected in the clinical results.

[4] = test system: mice (CBA/C57BL6) F1; test: Acute toxicity of CP-88 in mice; assay type: in vivo; conditions: male and female mice, intraperitoneally once, 0.2 mL per animal; doses 500, 1000 and 10,000 μg/kg
Method: This study of acute and chronic toxicity of CP-88 was conducted under the requirements of regulatory documents that regulate this study and are part of a complex of preclinical studies on acute and chronic toxicity that are required for the registration of drugs. Fifty-six male and fifty-six female mice, line (CBA/C57BL6) F1, were used for this study.
To determine acute toxicity, peptide was administered to male and female mice (CBA/C57BL6) F1 (56 male and 56 female mice). The animals were obtained from the Scientific and Production Enterprise “Stolbovaya” Laboratory Animal Nursery, Moscow Region, at the age of 4 weeks. Upon receipt, an external examination of the animal’s condition was conducted.
The drug was administered in the form of aqueous solutions intraperitoneally in doses of 500, 1000, and 10,000 μg/kg in a volume of 0.2 mL per mouse, which exceeded the effective doses of the drug by 50 to 1000 times. Animals of the same batch, injected with distilled water in a volume of 0.2 mL per animal (control substance), were used as a biological control.

Compound: CC[C@H](C)[C@H](N)C(=O)N[C@@H](CCC(=O)O)C(=O)N[C@@H](Cc1c[nH]c2ccccc12)C(=O)O [Stemokin, Ile-Glu-Trp] (H-Ile-Glu-Trp-OH)
- T1/2 [1]: 24 h
- time to Cmax in bone marrow, liver, kidneys, and lymph nodes [1]: 30 to 40 min
- time within which the drug is eliminated from the body [1]: ≤ 72 h

Compound: cyclo[L-Lys(N-acetyl-Glucosamine-N-acetyl-muramyl)-L-Glu(L-Trp)] [E1]
- adjuvant activity (in words) [2]: adjuvant activity

Compound: c[DTyrDGlu(DTrp)] [B9]
- immuno and hemosuppressive activity (in words) [2]: immuno and hemosuppressive activity

Compound: c[DLysDGlu(DTrp)] [B5]
- immuno and hemosuppressive activity (in words) [2]: immuno and hemosuppressive activity

Compound: c[DPheDGlu(DTrp)] [B6]
- immuno and hemosuppressive activity (in words) [2]: immuno and hemosuppressive activity

Compound: CC[C@H](C)[C@H](NC(=O)CC[C@@H]1NC(=O)[C@H](CCC(=O)N[C@@H](Cc2c[nH]c3ccccc23)C(=O)O)NC1=O)C(=O)O [CP-88, Cyclo-[Glu(Ile)-Glu(Trp)]]
- practically safe dose in humans with a single and course administration [3]: up to 100 μg/kg
- acute toxicity: doses with no toxic effects [4]: up to 10,000 µg/kg

Compound: c[DAlaDGlu(DTrp)] [B1]
- immuno and hemosuppressive activity (in words) [2]: immuno and hemosuppressive activity

Compound: cyclo[Lys(Palmitoyl)-Glu(D-Trp)] [E3]
- adjuvant activity (in words) [2]: adjuvant activity
